Measurements: BigSolDB 2.1

CC1(C)S[C@@H]2[C@H](NC(=O)[C@H](NC(=O)N3CCNC3=O)c3ccccc3)C(=O)N2[C@H]1C(=O)O
solubility (mole fraction)
Conditions	278.15 K	283.15 K	288.15 K	293.15 K	298.15 K	303.15 K	308.15 K	313.15 K	318.15 K	323.15 K
in THF	0.00106	0.00115	0.00131	0.00149	0.00164	0.00178	0.00199	0.00218	0.00243	0.00276
in acetone	0.000492	0.000572	0.000667	0.000823	0.000919	0.00112	0.00133	0.00155	0.00192	0.00223
in acetonitrile	0.000491	0.000551	0.000643	0.000757	0.000836	0.000934	0.00108	0.00122	0.00137	0.00156
in ethanol	0.000687	0.000805	0.000954	0.00113	0.00131	0.00165	0.00197	0.00245	0.00296	0.00368
in ethyl acetate	0.000219	0.000243	0.000287	0.000311	0.000353	0.000411	0.000462	0.000528	0.000613	0.000688
in isopropanol	9.02e-05	0.000111	0.000132	0.000162	0.000196	0.00024	0.000289	0.000376	0.000456	0.000557
in isopropyl acetate	6.88e-05	7.89e-05	9.25e-05	0.000102	0.000116	0.00013	0.000148	0.00017	0.000192	0.000219
in methanol	0.000281	0.00033	0.000403	0.000478	0.000602	0.000728	0.000948	0.00115	0.00142	0.00178
in methyl acetate	0.00027	0.000313	0.000372	0.000463	0.000565	0.000651	0.000758	0.000921	0.00107	0.0013
